How the values were obtained:
dopamine uptake = system: dopamine uptake
From the text: (§1) Leonard-BE, “Noradrenaline in basic models of depression.” European-Neuropsychopharmacol. April 1997; 7 Suppl 1: S11-6; discussion S71-3.

monoamine oxidase (MAO) = system: monoamine oxidase (MAO)
From the text: as §1

norepinephrine uptake = system: norepinephrine uptake
From the text: as §1

serotonin uptake = system: serotonin uptake
From the text: as §1

[1] = system: muscarinic cholinergic receptors; experiment: interaction with muscarinic cholinergic receptors; assay type: binding
I-adrenerigic receptors = experiment: interaction with I-adrenerigic receptors; assay type: binding
[2] = system: patients with a DSM-III-R diagnosis of Obsessive Compulsive Disorder; experiment: trial in patients with Obsessive Compulsive Disorder; assay type: in vivo, human; settings: 10 OCD patients, 3 to 4 weeks, 6 mg first week then 8 mg per day
[3] = in vivo; cited from earlier work
[4] = system: patients with panic Disorder with or without Agoraphobia
[5] = vs placebo, at some point in time

SMILES: CCOc1ccccc1OC(c1ccccc1)C1CNCCO1 (stereo not drawn) [reboxetine]
- dopamine uptake inhibitory activity (dopamine uptake): no dopamine uptake inhibitory activity
- monoamine oxidase (MAO) inhibitory activity (monoamine oxidase (MAO)): devoid of monoamine oxidase (MAO) inhibitory activity
- norepinephrine uptake inhibitory activity (norepinephrine uptake): highly selective norepinephrine uptake inhibitor
- serotonin uptake inhibitory activity (serotonin uptake): only marginal
- interaction with muscarinic cholinergic receptors [1]: without showing any appreciable interaction
- interaction with I-adrenerigic receptors (I-adrenerigic receptors): without showing any appreciable interaction
- patients judged minimally improved at CGI last assessment [2]: 2
- patients judged much improved at CGI last assessment [2]: 4
- patients judged very much improved at CGI last assessment [2]: one
- patients unchanged at CGI last assessment [2]: 3
- effect in the 8-OH-DPAT hypothermia test [3]: ineffective
- mean number of major panic attacks ([4]; 37 patients on reboxetine vs 38 on placebo): significantly lower than for those on placebo
- anticipatory anxiety [4, 5]: better
- phobic symptoms [4, 5]: better
- social and family adjustment [4, 5]: better

Source: patent US6391876B1 (Pharmacia and Upjohn Company, priority 1998, dated 2002)
